The record followed here is patent US10364222B2, “Cyclic amine derivative and medical use thereof” (Toray Industries, Inc., priority 2016, dated 2019).

For experiment [1], the system named is imiquimod-induced mouse psoriasis model. In words: Imiquimod-induced mouse psoriasis model. The conditions noted are these: BALB/c mice; 10 mg/kg orally once daily from 3 to 7 days after induction; vs vehicle, Student's t-test P<0.05. It counts as in vivo. As to the method:
Using increase in the ear thickness as an index of exacerbation of symptoms, the effect of the cyclic amine derivative (I) or a pharmacologically acceptable salt thereof in an imiquimod-induced mouse psoriasis model was evaluated. The imiquimod-induced mouse psoriasis model was prepared by a partially modified method by Schaper et al. (The Journal of Dermatological Science, 2013, Vol. 71, No. 1, p. 29-36).
BALB/c mice (male, 7 weeks old) (Charles River Laboratories Japan, Inc.) were used at 8 weeks old after preliminary breeding. To induce psoriasis-like symptoms, 5 mg each of BESELNA CREAM 5% was applied once daily to the outside of the right and left auricles of the mice for 8 days from the day of first administration of imiquimod (hereinafter referred to as induction day) to 7 days after induction (dose of imiquimod, 0.5 mg/body/day).
(§1) The test compound at a dose of 10 mg/kg was administered to the mice once daily for 5 days from 3 days after induction to 7 days after induction. As the test compound, the compound of Example 20, the compound of Example 29, and the compound of Example 57 were used. The compound of Example 20, the compound of Example 29, and the compound of Example 57 were suspended in a 0.5 w/v % methylcellulose solution and orally administered. The group in which the compound of Example 20 was administered to mice was defined as the Example-20 compound administration group, the group in which the compound of Example 29 was administered was defined as the Example-29 compound administration group, and the group in which the compound of Example 57 was administered was defined as the Example-57 compound administration group. In the vehicle administration group, a vehicle of each test compound (0.5 w/v % methylcellulose solution) was similarly administered.
The right and left ear thickness before administration of imiquimod (before induction) on the induction day and the right and left ear thickness on the 8th day after induction were measured with a digital micrometer (Mitutoyo Corporation). […]

Experiment [2] relates to oxazolone-induced mouse atopic dermatitis model. The experiment in a line: Oxazolone-induced mouse atopic dermatitis model. The format is in vivo. The conditions noted are these: BALB/c mice; 10 mg/kg orally once daily for 15 days from the sensitization day; vs vehicle, Student's t-test P<0.05. As to the method:
Using increase in the ear thickness as an index of exacerbation of symptoms, the effect of the cyclic amine derivative (I) or a pharmacologically acceptable salt thereof in an oxazolone-induced mouse atopic dermatitis model was evaluated. The oxazolone-induced mouse atopic dermatitis model was prepared by a partially modified method by Nakajima et al. (Journal of Investigative Dermatology, 2014, Vol. 134, p. 2122-2130).
BALB/c mice (female, 7 weeks old) (Charles River Laboratories Japan, Inc.) were used at 8 or 9 weeks old after preliminary breeding. To the back of the mice, 25 μL of a 3 w/v % oxazolone solution dissolved in ethanol was applied to sensitize the mice. Every other day from 5 days to 13 days after the sensitization, 10 μL each of a 0.6 w/v % oxazolone solution dissolved in ethanol was applied to both sides of the right auricle of the sensitized mice to induce inflammation.
as §1, with “for 15” for “for 5”, “from the sensitization day to 14” for “from 3”, “after sensitization.” for “after induction to 7 days after induction.”
The right ear thickness before application of the oxazolone solution (before sensitization) on the sensitization day and the right ear thickness on the next day of final induction were measured with a digital micrometer (Mitutoyo Corporation). […]

The structures appear in SMILES notation.

As for `CC(=O)N1CCCC[C@@H]1C(=O)Nc1ccc(-c2ccccc2OC(F)(F)F)c(Cl)c1` [Example 20, (R)-1-acetyl-N-(2-chloro-2′-(trifluoromethoxy)-[1,1′-biphenyl]-4-yl)piperidine-2-carboxamide], the “change in the ear thickness (ear thickness on the 8th day after induction − before induction)” value in experiment [1] is listed as “statistically significantly suppressed”. In addition, the “change in the ear thickness (right ear, next day of final induction − before sensitization)” value in experiment [2] is given as “statistically significantly suppressed”.

Take `CN(CC(=O)N1CCCC[C@@H]1C(=O)Nc1ccc(-c2ccccc2OC(F)(F)F)c(Cl)c1)S(C)(=O)=O` [Example 29, (R)-N-(2-chloro-2′-(trifluoromethoxy)-[1,1′-biphenyl]-4-yl)-1-(2-(N-methylmethylsulfonamide)acetyl)piperidine-2-carboxamide]: the “change in the ear thickness (ear thickness on the 8th day after induction − before induction)” value in experiment [1] is recorded as “statistically significantly suppressed”. Moreover, in experiment [2], the “change in the ear thickness (right ear, next day of final induction − before sensitization)” value is “statistically significantly suppressed”.

As for `O=C(Nc1ccc(-c2ccccc2OC(F)(F)F)c(Cl)c1)[C@H]1CCCCN1C(=O)Cn1cnnn1` [Example 57, (R)-1-(2-(1H-tetrazol-1-yl)acetyl)-N-(2-chloro-2′-(trifluoromethoxy)-[1,1′-biphenyl]-4-yl)piperidine-2-carboxamide], the “change in the ear thickness (ear thickness on the 8th day after induction − before induction)” value in experiment [1] is listed as “statistically significantly suppressed”. Moreover, the “change in the ear thickness (right ear, next day of final induction − before sensitization)” value in experiment [2] is “statistically significantly suppressed”.
